Data published in patent US6737383B1, “Herbicidal oxadiazolidines” (priority 1999, dated 2004).

Experiments:
blackgrass = experiment: Test B pre/postemergence blackgrass; format: in vivo, Alopecurus myosuroides
In short: (§1)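 Herbicidal effect was estimated by eye on a ten-point control scale after plants spent twelve to sixteen days in a greenhouse following soil or foliar treatment. Foliar sprays targeted plants at one to four leaves; all doses were formulated in a non-phytotoxic solvent with surfactant.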

surinam grass = experiment: Test B pre/postemergence surinam grass; format: in vivo, Brachiaria decumbens
In short: as §1

cocklebur = experiment: Test B pre/postemergence cocklebur; format: in vivo, Xanthium strumarium
In short: as §1

corn = experiment: Test B pre/postemergence corn; format: in vivo, Zea mays
In short: as §1

crabgrass = experiment: Test B pre/postemergence crabgrass; format: in vivo, Digitaria sanguinalis
In short: as §1

giant foxtail = experiment: Test B pre/postemergence giant foxtail; format: in vivo, Setaria faberii
In short: as §1

morningglory = experiment: Test B pre/postemergence morningglory; format: in vivo, Ipomoea hederacea; details: for Plant response rating, Morningglory: scale of 0 to 10 where 0 is no effect and 10 is complete control
In short: as §1

pigweed = experiment: Test B pre/postemergence pigweed; format: in vivo, Amaranthus retroflexus; details: for Plant response rating, Redroot pigweed: scale of 0 to 10 where 0 is no effect and 10 is complete control
In short: as §1

rape = experiment: Test B pre/postemergence rape; format: in vivo, Brassica napus; details: for Plant response rating, Rape: scale of 0 to 10 where 0 is no effect and 10 is complete control
In short: as §1

soybean = experiment: Test B pre/postemergence soybean; format: in vivo, Glycine max; details: for Plant response rating, Soybean: scale of 0 to 10 where 0 is no effect and 10 is complete control
In short: as §1

sugar beet = experiment: Test B pre/postemergence sugar beet; format: in vivo, Beta vulgaris; details: for Plant response rating, Sugarbeets: scale of 0 to 10 where 0 is no effect and 10 is complete control
In short: as §1

velvetleaf = experiment: Test B pre/postemergence velvetleaf; format: in vivo, Abutilon theophrasti; details: for Plant response rating, Velvetleaf: scale of 0 to 10 where 0 is no effect and 10 is complete control
In short: as §1

wheat = experiment: Test B pre/postemergence wheat; format: in vivo, Triticum aestivum; details: for Plant response rating, Wheat: scale of 0 to 10 where 0 is no effect and 10 is complete control
In short: as §1

wild oat = experiment: Test B pre/postemergence wild oat; format: in vivo, Avena fatua; details: for Plant response rating, Wild oats: scale of 0 to 10 where 0 is no effect and 10 is complete control
In short: as §1

purple nutsedge = experiment: Test B pre/postemergence purple nutsedge; format: in vivo, Cyperus rotundus; details: for Plant response rating, Nutsedge: scale of 0 to 10 where 0 is no effect and 10 is complete control
In short: as §1

rice = experiment: Test B flood test rice; format: in vivo, Oryza sativa
In short: (§2)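 Plants were grown to the 2-leaf stage before treatment with test chemical, then held in a greenhouse for twelve to sixteen days. Injury was visually rated against untreated controls on a 0–10 scale, where 0 is no effect and 10 is complete control.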

smallflower flatsedge = experiment: Test B flood test smallflower flatsedge; format: in vivo, Cyperus difformis
In short: as §2

duck salad = experiment: Test B flood test duck salad; format: in vivo, Heteranthera limosa
In short: as §2

bamyardgrass = experiment: Test B flood test barnyardgrass; format: in vivo, Echinochloa crus-galli
In short: as §2

[1] = Postemergence, Rate 250 g/ha, scale 0 to 10
[2] = Postemergence, Rate 500 g/ha, scale of 0 to 10 where 0 is no effect and 10 is complete control
[3] = Preemergence, Rate 62 g/ha, scale of 0 to 10 where 0 is no effect and 10 is complete control
[4] = Preemergence, Rate 125 g/ha, scale of 0 to 10 where 0 is no effect and 10 is complete control
[5] = Preemergence, Rate 250 g/ha, scale 0 to 10, 0 is no effect, 10 is complete control
[6] = Preemergence, Rate 500 g/ha, scale 0 to 10, 0 is no effect, 10 is complete control
[7] = Rate 62 g/ha, Postemergence, scale 0 to 10 (0 no effect, 10 complete control)
[8] = Rate 125 g/ha, Postemergence, scale 0 to 10, 0 is no effect, 10 is complete control
[9] = Rate 62 g/ha, flood test species, Pre-emergence, visual evaluation after twelve to sixteen days
[10] = Rate 125 g/ha, under heading Pre-emergence, flood test species, visual evaluation after twelve to sixteen days
[11] = Rate 250 g/ha, Pre-emergence (flood test species), scale 0 to 10, 0 is no effect, 10 is complete control
[12] = Rate 500 g/ha, Pre-emergence, flood test species, scale 0 to 10 (0 no effect, 10 complete control)

CC(=O)NCn1c(=O)on(C(=O)N(c2ccc(F)cc2)C(C)C)c1=O [Compound 473]
Blackgrass plant response rating (blackgrass; [1]): 0 | Blackgrass plant response rating (blackgrass; [2]): 0 | Plant response rating, Blackgrass (blackgrass; [3]): 0 | Plant response rating, Blackgrass (blackgrass; [4]): 0 | Blackgrass plant response rating (blackgrass; [5]): 0 | Blackgrass plant response rating (blackgrass; [6]): 3 | Blackgrass plant response rating (blackgrass; [7]): 0 | Blackgrass plant response rating (blackgrass; [8]): 0 | B. signalgrass plant response rating (surinam grass; Postemergence, Rate 250 g/ha, scale 0 to 10, 0 no effect, 10 complete control): 0 | B. signalgrass plant response rating (surinam grass; [2]): 0 | Plant response rating, B. signalgrass (surinam grass; [3]): 0 | Plant response rating, B. signalgrass (surinam grass; [4]): 0 | B. signalgrass plant response rating (surinam grass; [5]): 0 | B. signalgrass plant response rating (surinam grass; [6]): 0 | B. signalgrass plant response rating (surinam grass; [7]): 0 | B. signalgrass plant response rating (surinam grass; [8]): 0 | Cocklebur plant response rating (cocklebur; [1]): 0 | Cocklebur plant response rating (cocklebur; [2]): 0 | Plant response rating, Cocklebur (cocklebur; [3]): 0 | Plant response rating, Cocklebur (cocklebur; [4]): 0 | Cocklebur plant response rating (cocklebur; [6]): 0 | Cocklebur plant response rating (cocklebur; [7]): 0 | Cocklebur plant response rating (cocklebur; [8]): 0 | Corn plant response rating (corn; [1]): 0 | Corn plant response rating (corn; [2]): 0 | Plant response rating, Corn (corn; [3]): 0 | Plant response rating, Corn (corn; [4]): 0 | Corn plant response rating (corn; [5]): 0 | Corn plant response rating (corn; [6]): 0 | Corn plant response rating (corn; [7]): 0 | Corn plant response rating (corn; [8]): 0 | Crabgrass plant response rating (crabgrass; [1]): 3 | Crabgrass plant response rating (crabgrass; [2]): 8 | Plant response rating, Crabgrass (crabgrass; [4]): 2 | Crabgrass plant response rating (crabgrass; [5]): 4 | Crabgrass plant response rating (crabgrass; [6]): 7 | Crabgrass plant response rating (crabgrass; [7]): 1 | Crabgrass plant response rating (crabgrass; [8]): 2 | Giant foxtail plant response rating (giant foxtail; [1]): 6 | Giant foxtail plant response rating (giant foxtail; [2]): 7 | Plant response rating, Giant foxtail (giant foxtail; [3]): 2 | Plant response rating, Giant foxtail (giant foxtail; [4]): 3 | Giant foxtail plant response rating (giant foxtail; [5]): 4 | Giant foxtail plant response rating (giant foxtail; [6]): 7 | Giant foxtail plant response rating (giant foxtail; [7]): 1 | Giant foxtail plant response rating (giant foxtail; [8]): 2 | Morningglory plant response rating (morningglory; [1]): 2 | Plant response rating, Morningglory (morningglory; Preemergence, Rate 62 g/ha): 0 | Plant response rating, Morningglory (morningglory; Preemergence, Rate 125 g/ha): 0 | Morningglory plant response rating (morningglory; [5]): 0 | Morningglory plant response rating (morningglory; [6]): 0 | Morningglory plant response rating (morningglory; [7]): 0 | Morningglory plant response rating (morningglory; [8]): 1 | Redroot pigweed plant response rating (pigweed; [1]): 0 | Plant response rating, Redroot pigweed (pigweed; Preemergence, Rate 62 g/ha): 2 | Plant response rating, Redroot pigweed (pigweed; Preemergence, Rate 125 g/ha): 10 | Redroot pigweed plant response rating (pigweed; [5]): 10 | Redroot pigweed plant response rating (pigweed; [6]): 10 | Redroot pigweed plant response rating (pigweed; [7]): 0 | Redroot pigweed plant response rating (pigweed; [8]): 0 | Rape plant response rating (rape; [1]): 0 | Plant response rating, Rape (rape; Preemergence, Rate 62 g/ha): 0 | Plant response rating, Rape (rape; Preemergence, Rate 125 g/ha): 0 | Rape plant response rating (rape; [5]): 0 | Rape plant response rating (rape; [6]): 0 | Rape plant response rating (rape; [7]): 0 | Rape plant response rating (rape; [8]): 0 | Soybean plant response rating (soybean; [1]): 1 | Plant response rating, Soybean (soybean; Preemergence, Rate 62 g/ha): 0 | Plant response rating, Soybean (soybean; Preemergence, Rate 125 g/ha): 0 | Soybean plant response rating (soybean; [5]): 0 | Soybean plant response rating (soybean; [6]): 0 | Soybean plant response rating (soybean; [7]): 1 | Soybean plant response rating (soybean; [8]): 1 | Sugarbeets plant response rating (sugar beet; [1]): 0 | Plant response rating, Sugarbeets (sugar beet; Preemergence, Rate 62 g/ha): 0 | Plant response rating, Sugarbeets (sugar beet; Preemergence, Rate 125 g/ha): 0 | Sugarbeets plant response rating (sugar beet; [5]): 0 | Sugarbeets plant response rating (sugar beet; [6]): 0 | Sugarbeets plant response rating (sugar beet; [7]): 0 | Sugarbeets plant response rating (sugar beet; [8]): 0 | Velvetleaf plant response rating (velvetleaf; [1]): 0 | Plant response rating, Velvetleaf (velvetleaf; Preemergence, Rate 62 g/ha): 0 | Plant response rating, Velvetleaf (velvetleaf; Preemergence, Rate 125 g/ha): 0 | Velvetleaf plant response rating (velvetleaf; [5]): 0 | Velvetleaf plant response rating (velvetleaf; [6]): 0 | Velvetleaf plant response rating (velvetleaf; [7]): 0 | Velvetleaf plant response rating (velvetleaf; [8]): 0 | Wheat plant response rating (wheat; [1]): 0 | Plant response rating, Wheat (wheat; Preemergence, Rate 62 g/ha): 0 | Plant response rating, Wheat (wheat; Preemergence, Rate 125 g/ha): 0 | Wheat plant response rating (wheat; [5]): 0 | Wheat plant response rating (wheat; [6]): 0 | Wheat plant response rating (wheat; [7]): 0 | Wheat plant response rating (wheat; [8]): 0 | Wild oats plant response rating (wild oat; [1]): 0 | Plant response rating, Wild oats (wild oat; Preemergence, Rate 62 g/ha): 0 | Plant response rating, Wild oats (wild oat; Preemergence, Rate 125 g/ha): 0 | Wild oats plant response rating (wild oat; [5]): 0 | Wild oats plant response rating (wild oat; [6]): 0 | Wild oats plant response rating (wild oat; [7]): 0 | Wild oats plant response rating (wild oat; [8]): 0 | Nutsedge plant response rating (purple nutsedge; [1]): 0 | Plant response rating, Nutsedge (purple nutsedge; Preemergence, Rate 62 g/ha): 0 | Plant response rating, Nutsedge (purple nutsedge; Preemergence, Rate 125 g/ha): 0 | Nutsedge plant response rating (purple nutsedge; [5]): 0 | Nutsedge plant response rating (purple nutsedge; [7]): 0 | Nutsedge plant response rating (purple nutsedge; [8]): 0 | Plant response rating, Rice (0 to 10 scale, 0 is no effect, 10 is complete control) (rice; [9]): 0 | Rice plant response rating (0 to 10 scale, 0 is no effect, 10 is complete control) (rice; [10]): 0 | Rice plant response rating (rice; [11]): 0 | Rice plant response rating (rice; [12]): 0 | Plant response rating, S. Flatsedge (0 to 10 scale, 0 is no effect, 10 is complete control) (smallflower flatsedge; [9]): 0 | S. Flatsedge plant response rating (0 to 10 scale, 0 is no effect, 10 is complete control) (smallflower flatsedge; [10]): 0 | S. Flatsedge plant response rating (smallflower flatsedge; [11]): 0 | S. Flatsedge plant response rating (smallflower flatsedge; [12]): 0 | Plant response rating, Ducksalad (0 to 10 scale, 0 is no effect, 10 is complete control) (duck salad; [9]): 0 | Ducksalad plant response rating (0 to 10 scale, 0 is no effect, 10 is complete control) (duck salad; [10]): 0 | Ducksalad plant response rating (duck salad; [11]): 0 | Ducksalad plant response rating (duck salad; [12]): 0 | Plant response rating, Barnyardgrass (0 to 10 scale, 0 is no effect, 10 is complete control) (bamyardgrass; [9]): 0 | Barnyardgrass plant response rating (0 to 10 scale, 0 is no effect, 10 is complete control) (bamyardgrass; [10]): 0 | Barnyardgrass plant response rating (bamyardgrass; [11]): 0 | Barnyardgrass plant response rating (bamyardgrass; [12]): 0
